Measurements reported in ChEMBL document CHEMBL1156212, “Curcumin derivatives inhibit testicular 17beta-hydroxysteroid dehydrogenase 3” (Bioorg Med Chem Lett, 2010).
Activity calls are given as the source filed them. The rule behind the calls is not given here.

Tests used:
[1] = biological target: T1, 17-beta-hydroxysteroid dehydrogenase type 3 (Rattus norvegicus, UniProt O54939); assay: Inhibition of 17beta-HSD3 in Sprague-Dawley rat laydig cells
T1 sequence (O54939 whole entry): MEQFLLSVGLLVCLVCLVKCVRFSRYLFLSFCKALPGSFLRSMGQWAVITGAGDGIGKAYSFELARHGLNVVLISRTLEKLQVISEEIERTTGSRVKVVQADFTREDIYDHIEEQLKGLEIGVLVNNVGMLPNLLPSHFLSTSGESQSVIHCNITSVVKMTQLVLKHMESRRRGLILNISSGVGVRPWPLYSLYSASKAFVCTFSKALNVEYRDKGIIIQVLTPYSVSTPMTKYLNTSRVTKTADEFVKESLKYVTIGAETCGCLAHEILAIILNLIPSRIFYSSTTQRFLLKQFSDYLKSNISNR

[2] = biological target: T2, 17-beta-hydroxysteroid dehydrogenase type 3 (Rattus norvegicus) (UniProt O54939); assay: Inhibition of 17beta-HSD3 in Sprague-Dawley rat testis microsomes at 100 uM
T2 sequence (whole entry): T1 sequence (O54939 whole entry)

[3] = biological target: T3, 17-beta-hydroxysteroid dehydrogenase type 3 (Homo sapiens) (UniProt P37058); assay: Inhibition of 17beta-HSD3 in human testis microsomes at 100 uM
T3 sequence (whole entry): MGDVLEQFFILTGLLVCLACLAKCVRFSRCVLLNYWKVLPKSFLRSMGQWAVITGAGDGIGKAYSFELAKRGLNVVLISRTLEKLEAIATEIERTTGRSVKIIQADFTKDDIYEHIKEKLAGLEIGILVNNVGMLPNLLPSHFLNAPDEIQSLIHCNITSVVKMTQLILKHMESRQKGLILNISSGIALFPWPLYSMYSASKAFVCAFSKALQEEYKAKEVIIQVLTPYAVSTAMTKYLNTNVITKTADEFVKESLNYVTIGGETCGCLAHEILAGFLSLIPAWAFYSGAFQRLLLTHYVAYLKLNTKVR

[4] = biological target: T4, 17-beta-hydroxysteroid dehydrogenase type 3 (Homo sapiens, UniProt P37058); assay: Inhibition of 17beta-HSD3 in human testis microsomes
T4 sequence (P37058 whole entry): T3 sequence (whole entry)

[5] = biological target: T2, 17-beta-hydroxysteroid dehydrogenase type 3 (Rattus norvegicus); assay: Inhibition of 17beta-HSD3 in Sprague-Dawley rat laydig cells at 100 uM
[6] = biological target: T1, 17-beta-hydroxysteroid dehydrogenase type 3; assay: Inhibition of 17beta-HSD3 in Sprague-Dawley rat testis microsomes
[7] = biological target: T4, 17-beta-hydroxysteroid dehydrogenase type 3; assay: Inhibition of 17beta-HSD3
[8] = biological target: T2, 17-beta-hydroxysteroid dehydrogenase type 3 (Rattus norvegicus); assay: Uncompetitive inhibition of 17beta-HSD3 in Sprague-Dawley rat testis microsomes at 1 to 10 uM by Lineweaver-Burke plot analysis; conditions: Microsome
[9] = Inhibition of LH-stimulated testosterone production in Sprague-Dawley rat leydig cells at 10 uM after 18 hrs by tritium based radio immuno assay relative to control; format: functional; conditions: read-out: INH
[10] = biological target: T3, 17-beta-hydroxysteroid dehydrogenase type 3 (Homo sapiens); conditions: Testis, Microsomes, 1 to 10 uM
Description: Uncompetitive inhibition of 17beta-HSD3 in human testis microsomes at 1 to 10 uM by Lineweaver-Burke plot analysis

| SMILES | inhibition [2] | inhibition [3] | inhibition [5] | other results |
| --- | --- | --- | --- | --- |
| CCOc1ccc(/C=C/C(=O)/C=C/c2ccc(OCC)cc2)cc1 | 16% | 16% | – | IC50 [1]: 70 nM |
| O=C1C=CC(=O)C(c2ccc(-c3ccccc3)cc2)=C1 | – | – | – | IC50 [4]: 2700 nM |
| COc1cc(/C=C2\CCC/C(=C\c3ccc(OC4CCCOC4)c(OC)c3)C2=O)ccc1OC1CCCOC1 (stereo unspecified) | 27% | inactive | 26% | – |
| CCOc1ccc(/C=C2\CC/C(=C\c3ccc(OCC)cc3)C2=O)cc1 | inactive | inactive | 14% | – |
| COc1cc(/C=C2\CC/C(=C\c3ccc(OC4CCCOC4)c(OC)c3)C2=O)ccc1OC1CCCOC1 (stereo unspecified) | inactive | inactive | inactive | – |
| O=C1/C(=C/c2ccc(OC3CCCOC3)cc2)CC/C1=C\c1ccc(OC2CCCOC2)cc1 (stereo unspecified) | 13% | inactive | inactive | – |
| O=C1/C(=C/c2ccc(OC3CCCOC3)cc2)CCC/C1=C\c1ccc(OC2CCCOC2)cc1 (stereo unspecified) | 21% | inactive | 16% | – |
| CN(C)c1ccc(/C=C2\CCC/C(=C\c3ccc(N(C)C)cc3)C2=O)cc1 | 10% | 17% | 12% | – |
| O=C1/C(=C/c2ccc(F)cc2)CC/C1=C\c1ccc(F)cc1 | 15% | 11% | 14% | – |
| O=C(/C=C/c1ccc(F)cc1)/C=C/c1ccc(F)cc1 | – | 39% | – | IC50 [1]: 100 nM; IC50 [6]: 3300 nM |
| O=C(/C=C/c1ccc(OC2CCCOC2)cc1)/C=C/c1ccc(OC2CCCOC2)cc1 (stereo unspecified) | 29% | 22% | – | IC50 [1]: 1300 nM |
| O=C1/C(=C/c2ccc(O)cc2)CC/C1=C\c1ccc(O)cc1 | 15% | 28% | 18% | – |
| COc1cc(/C=C/C(=O)/C=C/c2cc(OC)c(OC)c(OC)c2)cc(OC)c1OC | inactive | inactive | inactive | – |
| COc1cc(/C=C2\CCC/C(=C\c3cc(OC)c(OC)c(OC)c3)C2=O)cc(OC)c1OC | – | – | – | IC50 [1]: > 100000 nM; IC50 [4]: 100 nM; IC50 [6]: 1800 nM |
| COc1cc(/C=C/C(=O)/C=C/c2ccc(OC3CCCOC3)c(OC)c2)ccc1OC1CCCOC1 (stereo unspecified) | 35% | 20% | inactive | – |
| COc1cc(/C=C2\CC/C(=C\c3ccc(OCCCN(C)C)c(OC)c3)C2=O)ccc1OCCCN(C)C | 32% | 28% | 38% | – |
| O=C1/C(=C/c2ccc(O)cc2)CCC/C1=C\c1ccc(O)cc1 | 34% | 38% | 13% | – |
| O=C1/C(=C/c2ccc(F)cc2)CCC/C1=C\c1ccc(F)cc1 | inactive | inactive | inactive | – |
| O=C1/C(=C/c2cccc(Br)c2)CC/C1=C\c1cccc(Br)c1 | – | 14% | 30% | IC50 [6]: 700 nM |
| CN(C)c1ccc(/C=C2\CC/C(=C\c3ccc(N(C)C)cc3)C2=O)cc1 | inactive | inactive | inactive | – |
| C[C@]12CC[C@H](OCCc3ccccc3)CC1CC[C@@H]1[C@@H]2CC[C@]2(C)C(=O)CC[C@@H]12 (stereo partly specified) | – | – | – | IC50 [7]: 57 nM |
| CCOc1ccc(/C=C2\CCC/C(=C\c3ccc(OCC)cc3)C2=O)cc1 | 16% | 13% | inactive | – |
| O=C(/C=C/c1cccc(Br)c1)/C=C/c1cccc(Br)c1 | – | – | 20% | IC50 [4]: 2700 nM; IC50 [6]: 8500 nM |
| COc1cc(/C=C2\CC/C(=C\c3cc(OC)c(OC)c(OC)c3)C2=O)cc(OC)c1OC | inactive | inactive | 11% | – |
| O=C1/C(=C/c2cccc(C(F)(F)F)c2F)CC/C1=C\c1cccc(C(F)(F)F)c1F | 23% | inactive | inactive | – |
| COc1cc(/C=C/C(=O)CC(=O)/C=C/c2ccc(O)c(OC)c2)ccc1O [CURCUMIN] | – | – | – | IC50 [1]: 9000 nM; IC50 [4]: 67300 nM; IC50 [6]: 2300 nM; inhibition [8]: Active; inhibition at 10 µM [9]: 64%; inhibition [10]: Active |
| O=C1/C(=C/c2cccc(Br)c2)CCC/C1=C\c1cccc(Br)c1 | 40% | 15% | 25% | – |
| O=C(/C=C/c1ccc(O)cc1)/C=C/c1ccc(O)cc1 | 33% | 46% | 30% | – |
| CN(C)c1ccc(/C=C/C(=O)/C=C/c2ccc(N(C)C)cc2)cc1 | 15% | – | inactive | IC50 [4]: 2400 nM |
